Laboratory results: US12285407B2, “Bis-indolylmethane derivatives and uses thereof” (The University of The West Indies, priority 2018, dated 2025)
Where two headings read alike, the source gives them in different places.

Tests used:
MRSA = experiment: Adjuvant broth microdilution (antibiotic MIC with SP-BIM at 50 μg/mL); format: cell-based, Staphylococcus aureus; details: Staphylococcus aureus, antibiotic alone, Table 4, read-out: MIC of antibiotic, No compound
Klebsiella pneumoniae = experiment: as above; format: cell-based; details: Klebsiella pneumoniae; antibiotic alone; Table 7; read-out: MIC of antibiotic, No compound
[1] = tested on: Pseudomonas aeruginosa ATCC 27853; experiment: Broth microdilution MIC of SP-BIMs; format: cell-based
[2] = tested on: Salmonella typhimurium ATCC 14028; experiment: Broth microdilution MIC of SP-BIMs; format: cell-based; details: Salmonella enterica, read-out: MIC Salmonella tvpkimurium ATCC 14028
Excerpt: Reference microorganisms used in this study included: Bacillus cereus (American Type Culture Collection (ATCC) No. 14579), Streptococcus pyogenes (ATCC No. 19615), Staphylococcus aureus (ATCC No. 12600), Enterococcus faecium (ATCC No. 19434), Corynebacterium diphtheriae (ATCC No. 27010), Escherichia coli (ATCC No. 35218), Salmonella typhimurium (ATCC No. 14028), Pseudomonas aeruginosa (ATCC No. 27853), Klebsiella pneumoniae (ATCC No. 49472), and Candida albicans (ATCC No. 22972).
Prior to each experiment, cultures were streaked onto clean BHI agar plates and incubated at 35° C. for 24 hours. Colonies of the respective cultures were selected and inoculated in phosphate buffer saline (pH 7.5) to a 0.5 McFarland turbidity standard (equivalent to 10^8 CFU mL^−1). The bacterial suspension was then diluted 1:100 in cation adjusted Mueller Hinton Broth (ca-MHB) (Oxoid Ltd, Basingstoke, Hampshire, England).
Stock solutions (50 mg mL^−1) of the SP-BIM test compounds were prepared in DMSO and stored at 4° C. Working preparations of each compound was made up to 1 mg/mL in sterile deionized water with a final DMSO concentration of 10%.
To assess the antibiotic properties of the library of SP-BIMs, the broth microdilution assay was performed in 96-well microplates according to the Clinical and Laboratory Standards Institute 2014 Guidelines (CLSI 2014). The broth microdilution assay was used to determine the minimum inhibitory concentration (MIC). […] Bacterial cells (˜10^6 CFU mL^−1) were inoculated into cation adjusted-Mueller Hinton broth containing the test compound in a twofold serial dilution ranging between 250 μg mL^−1 and 0.02 μg mL^−1. Plates were incubated at 35° C. for 18 hours after which 50 μL of 5% resazurin solution was added to each well. Resazurin is a blue dye which, upon reduction by living cells, turns to a pink resorufin product. Plates were shaken for 1 hour after the addition of the dye. The MIC was recorded as the well with the lowest concentration of test compound where no color change was observed.

[3] = tested on: Candida albicans ATCC 22972; experiment: Broth microdilution MIC of SP-BIMs; format: cell-based
[4] = tested on: Corynebacterium diphtheriae ATCC 27010; experiment: Broth microdilution MIC of SP-BIMs; format: cell-based
[5] = tested on: Escherichia coli ATCC 35218; experiment: Broth microdilution MIC of SP-BIMs; format: cell-based
[6] = tested on: Klebsiella pneumoniae ATCC 49472; experiment: Broth microdilution MIC of SP-BIMs; format: cell-based
[7] = tested on: Enterococcus faecium ATCC 19434; experiment: Broth microdilution MIC of SP-BIMs; format: cell-based
[8] = tested on: Streptococcus pyogenes ATCC 19615; experiment: Broth microdilution MIC of SP-BIMs; format: cell-based
[9] = tested on: Staphylococcus aureus ATCC 12600; experiment: Broth microdilution MIC of SP-BIMs; format: cell-based
[10] = tested on: Bacillus cereus ATCC 14579; experiment: Broth microdilution MIC of SP-BIMs; format: cell-based
Streptococcus pneumoniae = experiment: Adjuvant broth microdilution (antibiotic MIC with SP-BIM at 50 μg/mL); format: cell-based; details: Streptococcus pneumoniae, Streptococcus pneumonia, SP-BIM at 50 μg mL^−1
[11] = ATCC27853, SP-BIM alone, read-out: MIC Pseudomonas aeruginosa ATCC 27853
[12] = ATCC22972, SP-BIM alone, read-out: MIC Candida albicans ATCC 22972
[13] = ATCC27010, SP-BIM alone, read-out: MIC Corynebacterium diphtheriae ATCC 27010
[14] = ATCC35218, SP-BIM alone, read-out: MIC Escherichia coli ATCC 35218
[15] = ATCC49472, SP-BIM alone, read-out: MIC Klebisella pneumoniae ATCC 49472
[16] = ATCC19434, SP-BIM alone, read-out: MIC Enterococcus faecium ATCC 19434
[17] = ATCC19615, SP-BIM alone, read-out: MIC Streptococcus pyogenes ATCC 19615
[18] = ATCC12600, SP-BIM alone, read-out: MIC Staphylococcus aureus ATCC 12600
[19] = ATCC14579, SP-BIM alone, read-out: MIC Bacillus cereus ATCC 14579
[20] = read-out: MIC of Kanamvcin with SP-BIM
[21] = read-out: MIC of Vancomvcin with SP-BIM

SMILES	MIC [1, 11]	MIC [2]	MIC [3, 12]	MIC [4, 13]	MIC [5, 14]	MIC [6, 15]	MIC [7, 16]	MIC [8, 17]	MIC [9, 18]	MIC [10, 19]	MIC (Streptococcus pneumoniae; [20])	MIC (Streptococcus pneumoniae; [21])	other results
C[C@@H](O)[C@H]1C(=O)N2C(C(=O)O)=C(SCCN=CN)C[C@H]12 [Imipenem, imipenem]	–	–	–	–	–	–	–	–	–	–	–	–	MIC (MRSA): 4 µg/mL; MIC (Klebsiella pneumoniae): 2 µg/mL
O=[N+]([O-])c1ccc(C(c2c[nH]c3ccccc23)c2c[nH]c3ccccc23)cc1 [SP-BIM 8]	250 µg/mL	250 µg/mL	250 µg/mL	> 250 µg/mL	> 250 µg/mL	> 250 µg/mL	> 250 µg/mL	> 250 µg/mL	> 250 µg/mL	> 250 µg/mL	125 µg/mL	1 µg/mL	–
COc1ccccc1C(c1c[nH]c2ccccc12)c1c[nH]c2ccccc12 [SP-BIM 12, bis(indol-3-yl)-2-methoxyphenylmethane]	250 µg/mL	250 µg/mL	250 µg/mL	> 250 µg/mL	> 250 µg/mL	> 250 µg/mL	> 250 µg/mL	> 250 µg/mL	> 250 µg/mL	> 250 µg/mL	125 µg/mL	1 µg/mL	–
c1ccc2c(c1)cc(C(c1c[nH]c3ccccc13)c1c[nH]c3ccccc13)c1ccccc12 [SP-BIM 14, bis[indol-3-yl)-phenanthren-9-ylmethane]	–	250 µg/mL	–	–	–	–	–	–	–	–	125 µg/mL	1 µg/mL	MIC ([1]; ATCC27853, read-out: MIC Pseudomonas aeruginosa ATCC 27853): 250 µg/mL; MIC ([3]; ATCC22972, read-out: MIC Candida albicans ATCC 22972): 250 µg/mL; MIC ([4]; ATCC27010, read-out: MIC Corynebacterium diphtheriae ATCC 27010): > 250 µg/mL; MIC ([5]; ATCC35218, read-out: MIC Escherichia coli ATCC 35218): > 250 µg/mL; MIC ([6]; ATCC49472, read-out: MIC Klebisella pneumoniae ATCC 49472): > 250 µg/mL; MIC ([7]; ATCC19434, read-out: MIC Enterococcus faecium ATCC 19434): 125 µg/mL; MIC ([8]; ATCC19615, read-out: MIC Streptococcus pyogenes ATCC 19615): 125 µg/mL; MIC ([9]; ATCC12600, read-out: MIC Staphylococcus aureus ATCC 12600): > 250 µg/mL; MIC ([10]; ATCC14579, read-out: MIC Bacillus cereus ATCC 14579): 125 µg/mL
Oc1cc(Br)ccc1[C+](c1c[nH]c2ccccc12)c1c[nH]c2ccccc12 [SP-BIM 17, 4-bromo-2-hydroxyphenylbis(indol-3-yl)methylium]	250 µg/mL	250 µg/mL	250 µg/mL	> 250 µg/mL	> 250 µg/mL	> 250 µg/mL	> 250 µg/mL	> 250 µg/mL	> 250 µg/mL	> 250 µg/mL	125 µg/mL	1 µg/mL	–
COc1ccc2c(C(c3cccc(O)c3)c3c[nH]c4cc(OC)ccc34)c[nH]c2c1 [SP-BIM 19, bis(6-methoxyindoly-3-yl)-3-hydroxyphenylmethane]	250 µg/mL	250 µg/mL	250 µg/mL	> 250 µg/mL	> 250 µg/mL	> 250 µg/mL	> 250 µg/mL	> 250 µg/mL	> 250 µg/mL	> 250 µg/mL	125 µg/mL	1 µg/mL	–
COc1ccc2c(C(c3ccc([N+](=O)[O-])cc3)c3c[nH]c4cc(OC)ccc34)c[nH]c2c1 [SP-BIM 20, bis(6-methoxyindol-3-yl)-4-nitrophenylmethane]	250 µg/mL	250 µg/mL	250 µg/mL	> 250 µg/mL	> 250 µg/mL	> 250 µg/mL	> 250 µg/mL	> 250 µg/mL	> 250 µg/mL	> 25 µg/mL	125 µg/mL	1 µg/mL	–
